Assay results taken from the supplement of paper PMC10307832.

What was measured:
Assay in all cases: relative viability (nuclei count vs DMSO), 5 days (fraction); higher = more cells survive
[1] = compound: C1CNCCC1C2=CC(=NN2)C3=CC=NC=C3 + Nc1nc2[nH]cc(CCc3ccc(C(=O)N[C@@H](CCC(=O)O)C(=O)O)cc3)c2c(=O)[nH]1 [Pemetrexed] (partner 0.2 µM)
Procedure, shortened: (§1)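 Medians of duplicate plates are given as relative viability. That measure is the nuclei count in treated wells divided by the count in vehicle wells. Counts were taken on 4× images of lung cancer cell lines in 1536-well plates, 5 days after pin-tool dosing the day after seeding with one drug alone or a fixed anchor-drug dose plus five library-drug doses (not always all listed) in √10 steps.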

[2] = compound: C1CNCCC1C2=CC(=NN2)C3=CC=NC=C3 + O=C(CCCCCCC(=O)Nc1ccccc1)NO [Vorinostat] (partner 1 µM)
Procedure, shortened: as §1

Tanzisertib + Tozasertib = compound: O[C@H]1CC[C@H](Nc2ncc3nc(Nc4c(F)cc(F)cc4F)n([C@H]4CCOC4)c3n2)CC1 [Tanzisertib] + Cc1cc(Nc2cc(N3CCN(C)CC3)nc(Sc3ccc(NC(=O)C4CC4)cc3)n2)n[nH]1 [Tozasertib] (partner 0.1 µM)
Procedure, shortened: as §1

Tanzisertib + Olaparib = compound: O[C@H]1CC[C@H](Nc2ncc3nc(Nc4c(F)cc(F)cc4F)n([C@H]4CCOC4)c3n2)CC1 [Tanzisertib] + O=C(c1cc(Cc2n[nH]c(=O)c3ccccc23)ccc1F)N1CCN(C(=O)C2CC2)CC1 [Olaparib] (partner 8 µM)
Procedure, shortened: as §1

**Q.** What does the source list for NCI-H441?
**A.** relative viability ([1]; first compound 0.08 µM): 0.264; relative viability ([1]; first compound 0.8 µM): 0.251; relative viability ([1]; first compound 2.53 µM): 0.247; relative viability ([1]; first compound 8 µM): 0.243; relative viability ([2]; first compound 0.08 µM): 0.593; relative viability ([2]; first compound 0.8 µM): 0.944; relative viability ([2]; first compound 2.53 µM): 0.783; relative viability ([2]; first compound 8 µM): 0.77; relative viability (Tanzisertib + Tozasertib; first compound 0.08 µM): 0.568; relative viability (Tanzisertib + Tozasertib; first compound 0.253 µM): 0.71; relative viability (Tanzisertib + Tozasertib; first compound 0.8 µM): 0.512; relative viability (Tanzisertib + Tozasertib; first compound 2.53 µM): 0.422; relative viability (Tanzisertib + Tozasertib; first compound 8 µM): 0.698; relative viability (Tanzisertib + Olaparib; first compound 0.08 µM): 0.642; relative viability (Tanzisertib + Olaparib; first compound 0.253 µM): 0.611; relative viability (Tanzisertib + Olaparib; first compound 0.8 µM): 0.545; relative viability (Tanzisertib + Olaparib; first compound 2.53 µM): 0.496; relative viability (Tanzisertib + Olaparib; first compound 8 µM): 0.535
